Where a name gives a salt, the structure may show the parent alone.
Columns and labels:
gut microbiome = experiment: Metformin in vivo supplementation during antibiotic treatment, 16S rRNA sequencing of cecal contents; design: species or system C57BL/6J mice
Method: Mouse assays. C57BL/6J mice following the habituation period were given one week to acclimate to the control 0-fiber diet with 20% (w/w) glucose. After this diet acclimation period, mice were randomized into new cages for each diet/antibiotic condition. Amoxicillin was administered via drinking water (25 mg/kg/day) ad libitum for the specified timepoints. All drinking water was filter-sterilized before administration. Fecal samples were collected at the specified timepoints and stored at −20° C. until nucleic acid extraction. Cecum contents were collected directly into bead-bashing tubes with DNA/RNA shield (Zymo Research, Irvine, CA, USA) and stored at −80° C. for nucleic acid extraction. For the redox potential (eH) and pH measurements, total cecal contents were immediately flash frozen in liquid nitrogen and lyophilized and stored at −80° C. until measurements were taken.
16S rRNA amplicon preparation and sequencing. The 16S rRNA V4 hypervariable region was amplified from total DNA using the barcoded 515F forward primer and the 806R reverse primers from the Earth Microbiome Project (Thompson et al., 2017). Amplicons were generated using 5× Phusion High-Fidelity DNA Polymerase under these cycling conditions: (1) initial denaturation at 98 °C for thirty seconds, followed by (2) twenty-five cycles of 98 °C for ten seconds, 57 °C for thirty seconds, and 72° C. for thirty seconds, then (3) a final extension at 72 °C for five minutes. Gel electrophoresis was used to visualize amplicons and pooled in equimolar amounts. The pooled amplicon library was submitted to the Rhode Island Genomics and Sequencing Center at the University of Rhode Island (Kingston, RI, USA) for sequencing on the Illumina MiSeq platform. Amplicons were paired-end sequenced (2×250 bp) using the 600-cycle kit with standard protocols. Raw reads were deposited in the NCBI Sequence Read Archive (SRA).
16S sequencing analysis. Raw 16S rRNA reads were first demultiplexed with idemp. Quality filtering, trimming, de-noising with DADA2 (q2-dada2). […] Merging was done using the Qiime2 pipeline (version 2019.10). […] Ribosomal sequence variants were aligned with mafft (q2-alignment). […] Phylogenetic tree construction was done with fasttree2 (q2-phylogeny). […] Taxonomic assignment was conducted using the pre-trained Naive Bayes classifier and the q2-feature-classifier (Bokulich et al., 2018) trained on the SILVA 132 99% database. […] Alpha diversity (Shannon, Faith's phylogenetic diversity) and beta diversity (Bray-Curtis dissimilarity) were calculated using the phyloseq package (version 1.30.0) in R (version 3.6.2).
(§1) Metformin in vivo supplementation. Metformin hydrochloride (Fisher Scientific, Waltham, MA, USA) was added to powdered mouse diet at 100 mg/kg (w/w) or 0.1% in the glucose diet and homogenized before administration to mice via feeding jars. In the chow diet metformin was added 50 mg/kg (w/w) or 0.05%.
The inventors used metformin supplemented diets and supplemented the control low-fiber diet with 100 mg/kg of metformin hydrochloride (MPI Chemicals) during antibiotic treatment for five days.
The inventors then extracted DNA from the cecal contents of mice Day 1 and Day 5 following antibiotic treatment and used 16S rRNA sequencing to investigate changes in gut microbiome composition.

E. coli = experiment: Amoxicillin kill curve in E. coli; type: cell-based, Escherichia coli; details: aerobic, increasing concentrations of metformin
Method: Bacterial strains. Bacteroides thetaiotaomicron (VPI-5482) can be obtained from the American Type Culture Collection (ATCC; Manassas, VA, USA). Bacteroides theta was cultured in modified Gifu Anaerobic Media (mGAM, HyServe). Escherichia coli (MG1655) was cultured in Luria Broth (Fisher Scientific, Waltham, MA, USA). Anaerobic assays were cultured in a BactronEZ anaerobic chamber (Sheldon Manufacturing, Cornelius, OR, USA) under an atmosphere of 5% H2, […]. All bacteria were grown at 37° C.
Amoxicillin kill curves in E. coli and B. theta. Kill Curves for E. coli were done in an aerobic environment and for B. theta in the anaerobic chamber. Overnight cultures s were grown in Luria Broth (E. coli) or mGAM (B. theta). Overnight cultures were diluted 1:100 in fresh media. They were allowed to grow to 0.2 OD before treatment with amoxicillin and metformin. Samples were grown at 37° C. and plated every two hours for six hours in serial dilutions. Colony forming units (CFUs) were measured the following day.
The inventors then tested the survival of bacteria treated with metformin against amoxicillin. […] These assays were conducted aerobically in E. coli.

[1] = test system: Bacteroides thetaiotaomicron; experiment: Amoxicillin kill curve in B. theta; type: cell-based; details: anaerobic
Method: Bacteroides theta was cultured in modified Gifu Anaerobic Media (mGAM, HyServe). […] Anaerobic assays were cultured in a BactronEZ anaerobic chamber (Sheldon Manufacturing, Cornelius, OR, USA) under an atmosphere of 5% H2, 5% N2, and 90% CO2. All bacteria were grown at 37° C.

E. coli (MG1655) = experiment: NAD+/NADH reporter: E. coli reporter assay; type: cell-based, Escherichia coli
Method: NAD+/NADH reporter: E. coli reporter assay. The NAD+/NADH reporter plasmid (Liu et al., 2019) was transformed into E. coli (MG1655) for growth and fluorescence assays. Overnight cultures of E. coli were diluted 1:1000 in fresh Luria Broth. The diluted cultures were allowed to grow to 0.2 OD before treatment with amoxicillin and metformin. Fluorescence and growth (in OD) were measured in parallel using two plate readers. Data is shown with fluorescence normalized to growth and as separate growth and fluorescence curves.
This ratio is a stand in for cellular bioenergetics with a high ratio indicative of increased catabolism
The inventors then treated these bacteria with metformin and measured their growth and fluorescence. […] Dwyer et al. (2014). […] Stynen et al. (2018).

[2] = Mass spectrometry for metformin measurement in serum, liver and cecum; type: in vivo, C57BL/6J mice; details: low-fiber glucose diet with 100 mg/kg metformin hydrochloride, five days, LC/MS
Method: as §1
Mass spectrometry for metformin measurement. Plasma, liver and cecal samples were collected for from the sacrificed mice in the two metformin supplementation assays (n=6 mice per group, twenty-four mice/assay). The liver was perfused with phosphate-buffered saline upon collection and the tissue was homogenized with reverse osmosis-purified water at 1 mg/10 μL using a Bead Ruptor at speed 30 for five minutes. Supernatants from the homogenate was collected after centrifugation at 2000×g for five minutes to pellet beads. Cecal contents were also homogenized with reverse osmosis-purified water at 1 mg/10 μL, and supernatants were used for analysis. Metformin extraction and mass spec protocol modified from Chaudhari et al. (2020). For metformin extraction, 30 μL of cecal/tissue homogenates or plasma were added to 70 μL of D6-metformin ([sequence]) at 250 μM concentration in methanol. […]
Metformin in biological samples after spiking with D6-metformin ([sequence]) and extraction was quantitated with HPLC-MS on an Ultimate 3000, Dionex coupled to Q Executive Classic (Thermo Fisher) with ESI interface. […]

[3] = Redox potential (eH) and pH measurements of cecal contents; type: in vivo, C57BL/6J mice; details: mice on standard chow diet
Method: Mouse assays. C57BL/6J mice following the habituation period were given one week to acclimate to the control 0-fiber diet with 20% (w/w) glucose. After this diet acclimation period, mice were randomized into new cages for each diet/antibiotic condition. Amoxicillin was administered via drinking water (25 mg/kg/day) ad libitum for the specified timepoints. All drinking water was filter-sterilized before administration. Fecal samples were collected at the specified timepoints and stored at −20° C. until nucleic acid extraction. Cecum contents were collected directly into bead-bashing tubes with DNA/RNA shield (Zymo Research, Irvine, CA, USA) and stored at −80° C. for nucleic acid extraction. […]
Redox potential and pH measurements. Redox potential was measured according to a modified protocol from Husson (2012); Husson et al. (2016) with an Ag/AgCl Reference electrode (Radiometer analytical E21M002, Radiometer Analytical Pt plate electrode 5×5 mm M241 Pt), and a voltmeter. […] The samples were blinded and measured in random order. […]
The platinum electrode was inserted into each sample. […] The same cecal extracts were used to measure pH using a PH meter and for subsequent validation with ATP assays, 16S rRNA sequencing and quantitative polymerase chain reaction (qPCR) bacterial load. […]

murine gut microbiome = experiment: Oats diet with amoxicillin challenge, 16S rRNA sequencing of fecal pellets (Example 11); type: in vivo, C57BL/6J mice; details: Day 5, across each diet group
Text: In Example 11, mice were fed LabDiet 5001 (LD01; LabDiet, St. Louis, MO, USA) feed pellets for a 2-week habituation period. For experimental diets, a custom base diet reflecting standard mouse chow fiber content was designed (Envigo-Teklad, Madison, WI, USA). The base diet modifies AlN-93G (TD.180901) by removing all cellulose and reducing cornstarch content while adjusting micro- and macronutrient contents so the diet could be an 80% base for 20% (wt/wt) supplementation with other carbon sources. Buffalo cornstarch (Ingredion Incorporated, IL, USA) was used to increase host accessibility and reduce cornstarch availability in the cecum and lower gastrointestinal tract. […]
In Example 11, total DNA and RNA was liberated from bacteria by bead-bashing fecal or cecum samples for 5 min on a Bead Ruptor 96 (Omni International, Kennesaw, GA). […] Nucleic acids were eluted in nuclease-free water and measured using the double-stranded DNA high sensitivity (dsDNA-HS) or RNA-HS kits on a Qubit 3.0 fluorometer (Thermo Fisher Scientific, Waltham, MA, USA).
In Example 11, the 16S rRNA gene V4 region was amplified from fecal total DNA using barcoded 515F forward and indexed 806R reverse primers as described by Parada, Needham, & Fuhrman, Environ. […] Amplicons were verified by gel electrophoresis, measured on the Qubit 3.0 and pooled in equimolar concentrations. […]

Compound	Desulfobacterota and Cyanobacteria phyla abundance (gut microbiome; all metformin treatment groups, low-fiber glucose diet and laboratory chow)	antibiotic-induced decrease in diversity (Shannon) (gut microbiome; glucose diet with metformin, Day 1 and Day 5 of antibiotic treatment)	Proteobacteria at Day 5 of antibiotic treatment (gut microbiome; glucose diet, metformin plus antibiotic, Day 5)	bacterial diversity, metformin alone (gut microbiome; glucose diet, no antibiotics, Day 5)	initial spike in Proteobacteria during antibiotic treatment (gut microbiome; glucose low-fiber diet, Day 1)	reduction in microbial diversity during antibiotic treatment (gut microbiome; laboratory chow with metformin)	survival of bacteria challenged with amoxicillin (E. coli)	protection from amoxicillin (kill curve) [1]	NADH reporter fluorescence (NADH/NAD+ ratio), effect on the antibiotic-induced increase (E. coli (MG1655); E. coli treated with amoxicillin and metformin)	metformin levels in cecum, liver and serum [2]	chemical redox of cecal contents [3]	relative proportion of Bacteroidota and Verrucomicrobiota compared to controls (murine gut microbiome)	NADH reporter fluorescence (NADH/NAD+ ratio) (E. coli (MG1655); E. coli, antibiotic treatment)
CN(C)C(=N)N=C(N)N [metformin, Metformin hydrochloride]	complete depletion	smaller decrease in diversity	bloom in Proteobacteria in the Moraxellaceae family	significant changes in bacterial diversity	prevented the initial spike in Proteobacteria	smaller reduction in microbial diversity	improved the survival of bacteria	significant protection from amoxicillin	suppressed this increase	significantly higher in the cecum compared to the liver and serum	–	–	–
CC1(C)S[C@@H]2[C@H](NC(=O)[C@H](N)c3ccc(O)cc3)C(=O)N2[C@H]1C(=O)O [amoxicillin, Amoxicillin]	–	–	–	–	–	–	–	–	–	–	increased the chemical redox	Bacteroidota receded and that of Verrucomicrobiota increased	significantly increased fluorescence

Reference: patent US20240180955A1, “FIBER SUPPLEMENTATION PROTECTS FROM ANTIBIOTIC-INDUCED GUT MICROBIOME DYSBIOSIS BY MODULATING REDOX METABOLISM” (Brown University, priority 2022, published 2024)
